Test results published in patent US20020072601A1, “Method for forming amino acid derivatives from tricyclic diketopiperazines” (University of Southern Mississippi, priority 2000, published 2002).

Test: Gelation studies: minimum concentration needed for solvent gelation
Type: physicochemical
Details: cooled to room temperature
Experimental: The ring-opening reaction of PyDKP with certain nucleophiles (Reaction 3) forms a class of pyroglutamate derivatives that gel organic solvents. In these experiments, the solubility and minimum concentration needed for solvent gelation were determined. Tetradecyl pyroglutamide was placed in various solvents which were then heated to their boiling point, except silicone and soybean oil, which were heated to 150° C. to prevent decomposition of the gelator. In most cases, regardless of partial insolubility in some instances, the various solvents formed immobile gels upon cooling to room temperature. All of the gels were thermoreversible, meaning the gel would revert back to liquid with the application of heat and then reform with cooling.

gel Concentration (1-Propanol): 50 g/L
gel Concentration (Acetonitrile): 15 g/L
gel Concentration (Benzene): 100 g/L
gel Concentration (Butanol): 100 g/L
gel Concentration (Chloroform): 160 g/L
gel Concentration (Dichioromethane): 50 g/L
gel Concentration (Ethanol): 30 g/L
gel Concentration (Methanol): 30 g/L
gel Concentration (Silicone Oil): 11 g/L
gel Concentration (Soybean Oil): 11 g/L
Structure (SMILES): CCCCCCCCCCCCCCNC(=O)[C@@H]1CCC(=O)N1 [N-tetradecyl pyroglutamide, N-Pyroglutamyl tetradecylamine]
